# Reference: paper PMC12154214, “Bioactive Peptides from Sodium Caseinate Hydrolysate with High Oral Absorption Regulate Blood Glucose in Type 2 Diabetic Mice via Inhibition of DPP-IV and Stimulation of GLP-1” (Foods, 2025)
# Entries after “also recorded” stand apart in the source; their conditions may differ. Read-outs that look alike come from different tables or passages of the source. No end group written: not given here.
# How the values were obtained:
# [1] = design: method as in PMID 29732892; details: rats, single oral dose 100 mg/kg body weight; cited from earlier work
# DPP-IV = biological target: T1, DPP-IV (Sus scrofa, UniProt P22411); test: In vitro DPP-IV inhibition assay; format: biochemical, porcine; details: synthesized peptides, in vitro enzymatic assay
# T1 construct: purchased Sigma-Aldrich D7052; host or cells: porcine kidney (tissue-derived)
# T1 sequence (P22411 whole entry): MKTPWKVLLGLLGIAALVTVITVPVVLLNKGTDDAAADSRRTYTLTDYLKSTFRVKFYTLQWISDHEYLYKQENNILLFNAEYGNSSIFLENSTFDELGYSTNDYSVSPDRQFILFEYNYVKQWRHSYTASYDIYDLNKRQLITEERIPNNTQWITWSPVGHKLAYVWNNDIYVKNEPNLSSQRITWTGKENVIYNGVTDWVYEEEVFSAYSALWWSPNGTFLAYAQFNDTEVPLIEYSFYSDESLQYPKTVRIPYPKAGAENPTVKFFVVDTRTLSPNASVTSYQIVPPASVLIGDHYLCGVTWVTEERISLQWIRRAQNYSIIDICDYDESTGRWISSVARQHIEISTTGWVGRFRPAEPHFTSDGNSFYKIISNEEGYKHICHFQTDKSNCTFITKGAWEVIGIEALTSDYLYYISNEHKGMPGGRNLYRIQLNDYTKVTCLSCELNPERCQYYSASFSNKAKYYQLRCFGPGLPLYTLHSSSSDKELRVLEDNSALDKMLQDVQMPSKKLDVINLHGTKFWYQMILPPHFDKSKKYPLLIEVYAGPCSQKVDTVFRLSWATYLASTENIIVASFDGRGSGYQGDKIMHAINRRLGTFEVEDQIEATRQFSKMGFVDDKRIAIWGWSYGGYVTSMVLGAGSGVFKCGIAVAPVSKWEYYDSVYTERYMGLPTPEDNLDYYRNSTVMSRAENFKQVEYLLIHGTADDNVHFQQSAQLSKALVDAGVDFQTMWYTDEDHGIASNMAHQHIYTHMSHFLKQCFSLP
# Description: Sodium caseinate was obtained from Gemfont Inc. (Taipei, Taiwan). Bromelain, derived from pineapple stem, was obtained from STBIO Media Inc. (New Taipei, Taiwan). Dipeptidyl peptidase-IV (DPP-IV; D7052, sourced from porcine kidney), Gly-Pro-p-nitroanilide, HEPES sodium salt (H3784), and RPMI-1640 medium (R8758) were obtained from Sigma-Aldrich (St. Louis, MO, USA). The remaining chemicals and reagents were of analytical grade and were available from commercial suppliers.
# In this study, 1CBR was purified by RP-HPLC using a Model L-2130 HPLC system (Hitachi Ltd., Katsuda, Japan). Afterward, 2 mg of the lyophilized hydrolysate fraction was reconstituted in 1 mL of ddH2O, and 60 μL of the resulting solution was subjected to injection onto a ZORBAX Eclipse Plus C18 column (4.6 mm × 250 mm, Agilent Tech. Inc., Santa Clara, CA, USA) for analysis. A gradient of acetonitrile, ranging from 5% to 60% over 60 min, was applied in 0.1% TFA at 0.7 mL/min. Peptides were monitored at 220 nm. After collection, each fraction was lyophilized and stored in a desiccator for future use. The fractions were then re-dissolved in 100 mM Tris buffer (pH 7.0) to achieve a 1 mg/mL concentration and were evaluated for in vitro DPP-IV inhibitory activity. The assay for DPP-IV inhibition was conducted following the procedure outlined in our previous study.
# The selected peptides were generated through Fmoc-based solid-phase peptide synthesis using an automated synthesizer (CS 136, CS Bio Co., San Carlos, CA, USA). Their structural integrity and purity were confirmed via RP-HPLC-MS/MS analysis. To assess their inhibitory potential against DPP-IV, the IC50 values were determined through in vitro enzymatic assays. […]
# [2] = design: method as in PMID 38581395; details: rat model, cited from earlier work
# [3] = design: species or system Sprague–Dawley rats; details: rat, in vivo; for AR30 (absorption ratio at 30 min) / AR90 (absorption ratio at 90 min) / AUC / Cmax / Fractional absorption / Tmax / half-life: po, 16 mg/kg
# Description: In this study, GPFPLPD and […] peptides were synthesized and prepared for the in vivo absorption study as outlined in Section 2.4. The experiment involved ten male Sprague–Dawley rats (LASCO, Taipei, Taiwan), each 6 weeks old and weighing between 230 and 250 g. Prior to the experiment, the rats were allowed a 7-day acclimatization period, during which they were fed a 5012-Rat Diet (LabDiet®, St. Louis, MO, USA), consisting of 60% carbohydrates, 13% fat, and 27% protein based on total caloric content. The rats were randomly assigned to two groups (5 rats per group) and orally administered a single dose of either GPFPLPD or […] peptide at 16 mg/kg body weight.
# Overnight-fasted rats were administered the peptides, and blood samples were collected from the tail vein at 0, 30, 60, 90, and 180 min post-administration. To obtain plasma, the samples were centrifuged at 3000× g for 15 min at 4 °C. A 500 µL aliquot of plasma was then combined with an equal volume of acetonitrile, followed by additional centrifugation at 1200× g for 10 min at 4 °C to precipitate high-molecular-weight proteins. The resulting supernatant (20 µL) was analyzed via RP-HPLC under the conditions outlined in Section 2.4. Peptide concentrations were quantified using calibration curves from peptide standards prepared in 50% (v/v) acetonitrile (Figure S4). The estimated blood volume of male rats was 6.86 mL per 100 g of body weight.
# The pharmacokinetic parameters, including the half-life (t1/2), area under the plasma drug concentration–time curve (AUC), time-to-peak concentration (Tmax), and peak concentration (Cmax), were directly determined and analyzed. The absorption ratio (ARt; %) was defined as the percentage of the administered peptide dose (16 mg/kg BW) present in plasma, calculated as the product of peptide concentration and blood volume at each time point. The AUC method was also employed to quantify peptide absorption. The fractional absorption (%) of orally administered peptides was calculated using the following formula [23]: Fractional absorption (%)=ln2/t1/2×calculated oral AUC×plasma volume/oral dose×100
# [4] = MALDI-TOF/TOF check of intact peptide in rat plasma; format: in vivo, Sprague–Dawley rats; details: 60 min post-administration, oral 16 mg/kg BW
# Procedure: A 0.6 μL aliquot of peptide solution (1 mg/mL) was mixed with an equal volume of saturated α-cyano-4-hydroxycinnamic acid matrix and then air-dried on the target plate. The dried sample was subsequently analyzed using MALDI-TOF/TOF MS in positive ion reflection mode under a 20 kV accelerating voltage. Mass spectra were generated by averaging 200 laser shots within an m/z range of 200–2500 Da. Tandem mass spectrometry (MS/MS) was performed to determine peptide sequences, with data processed using BioTools software (Version 3.2, Bruker Daltonics, Billerica, MA, USA).
# To verify that the peaks observed in the RP-HPLC chromatogram corresponded to the intact peptides GPFPLPD and […], plasma samples from rats with or without peptide administration were analyzed by MALDI-TOF/TOF, as described in Section 2.4.2.
# db/db mice = test: Oral glucose tolerance test (OGTT) in db/db mice; format: in vivo; details: week 3, glucose 2 g/kg, 120 min, 1CBR 500 mg/kg/day, sitagliptin 20.5 mg/kg/day, p < 0.05
# Procedure: In this study, db/db mice (BKS.Cg-Dock7m+/+Leprdb/JNarl from National Laboratory Animal Center, Taipei, Taiwan) 5 weeks of age and weighing 22–25 g were analyzed. The mice were given the 5001-Laboratory Rodent Diet (LabDiet®, St. Louis, MO, USA), which comprised 57% carbohydrate, 13% fat, and 30% protein by total kcal.
# An OGTT was conducted on mice fasted overnight from each group at week 0 and week 3. Blood samples were collected by retro-orbital bleed at 0 to 120 min following a glucose challenge (2 g/kg) to determine glucose levels using a Glucose GOD-PAP kit (Randox Laboratories Ltd., Crumlin, UK).
# plasma insulin = test: Plasma insulin level in db/db mice (ELISA); format: in vivo; details: after 3-week treatment, 1CBR 500 mg/kg/day, sitagliptin 20.5 mg/kg/day, untreated group C 6.51
# Procedure: (§1) Between the ages of 6 and 8 weeks, the blood glucose concentrations in the mice were monitored weekly. Diabetes was determined in mice when the blood glucose levels surpassed 400 mg/dL after an OGTT test (oral glucose tolerance). The mice were randomly allocated to three groups, each consisting of 13 individuals. The experimental period lasted for 3 weeks. […] Mice were housed in groups of 3–4 per cage. The sample size was determined based on previous studies and ethical considerations (3Rs principle) to achieve adequate statistical power without excessive animal use. […] This dose was also within the effective range reported for other food-derived bioactive protein hydrolysates in rodent models.
# (§2) At week 3, blood samples were obtained from all mice into EDTA-treated chilled tubes and then centrifuged at 3000× g for 15 min. The supernatant was kept on ice for up to 3 h for further analysis. Plasma insulin levels and DPP-IV activity were determined using an insulin ELISA kit (Mercodia AB, Uppsala, Sweden) and a DPP-IV assay kit (Enzo Inc., Farmingdale, NY, USA), respectively. Plasma total GLP-1 levels were measured using the glucagon-like peptide-1 (total) kit from RayBiotech Inc. (Norcross, GA, USA), while active GLP-1 levels were assessed with the active GLP-1 kit from Millipore Corp. (Billerica, MA, USA), each from a different supplier.
# active GLP-1 = test: Plasma active GLP-1 level in db/db mice; format: in vivo; details: after 3-week treatment, 1CBR 500 mg/kg/day, sitagliptin 20.5 mg/kg/day, group C 5.22
# Procedure: as §1, §2
# total GLP-1 = test: Plasma total GLP-1 level in db/db mice; format: in vivo; details: after 3-week treatment, 1CBR 500 mg/kg/day, sitagliptin 20.5 mg/kg/day
# Procedure: as §1, §2
# NCI-H716 cells = test: In vitro GLP-1 secretion in NCI-H716 cells; format: cell-based, human; details: NCI-H716 cells, 2.0, 2.5 and 3.0 mM, 3 h
# Procedure: (§3) NCI-H716 and STC-1 enteroendocrine cell lines are widely conducted to investigate the mechanisms of GLP-1 expression. The STC-1 and NCI-H716 cell lines in this study were sourced from Bioresource Collection and Research (BCRC, Hsinchu, Taiwan). STC-1 cells were seeded in 12-well plates at 2 × 10^6 cells/mL, while NCI-H716 cells were seeded in Matrigel-coated 12-well plates at 2 × 10^5 cells/mL. Upon reaching 85% confluence, the supernatants were replaced with HEPES buffer for STC-1 and RPMI-1640 buffer without FBS for NCI-H716. […] After incubating at 37 °C with 5% CO2 for 3 h, the supernatants were harvested and assessed for GLP-1 levels using the active glucagon-like peptide-1 kit from Millipore Corp. (Billerica, MA, USA).
# STC-1 cells = test: In vitro GLP-1 secretion in STC-1 cells; format: cell-based; details: STC-1 cells, 2.0, 2.5 and 3.0 mM, 3 h
# Procedure: as §3
# [5] = design: method as in PMID 25387326; details: adult Wistar rats, 40 mg/kg BW; cited from earlier work
molecule,measurement,setting,value
WDHHAPQLR [antioxidative peptide],bioavailability,[1],3.56%
same,elimination half-life,[1],1.19 h
GGKPSSMT,IC50,DPP-IV,839 µM
IRW,elimination half-life,[2]; intravenous injection,0.475 h
same,elimination half-life,[2]; oral administration,0.132 h
same,bioavailability,[2],11.7%
GGHLFFC [GGHLFFC],IC50,DPP-IV,642 µM
APDSGNFR,IC50,DPP-IV,73.1 µM
same,oral bioavailability,[3],19.12%
same,AR30 (absorption ratio at 30 min),[3],12.74 ± 2.17%
same,AR90 (absorption ratio at 90 min),[3],12.40 ± 1.97%
same,AUC,[3],66600 ng·h/mL
same,Cmax,[3],44600 ± 9330 ng/mL
same,Fractional absorption,[3],10.8%
same,Tmax,[3],1 h
same,half-life,[3],1.82 h
same,structural integrity in plasma (MALDI-TOF/TOF),[4],remained structurally intact
N[C@@H](CC(=O)N1CCn2c(nnc2C(F)(F)F)C1)Cc1cc(F)c(F)cc1F [sitagliptin],OGTT AUC compared to group C,db/db mice,significantly lower AUC values
same,plasma insulin level,plasma insulin,11.31 µg/L
same,plasma active GLP-1 level,active GLP-1,12.29 pM
same,plasma total GLP-1 level,total GLP-1,unchanged
same,effect on GLP-1 secretion (in words),NCI-H716 cells,did not influence GLP-1 secretion; also recorded: failed to induce GLP-1 secretion
same,effect on GLP-1 secretion (in words),STC-1 cells,did not influence GLP-1 secretion; also recorded: failed to induce GLP-1 secretion
HLPLP,Cmax,[5],20.1 ng/mL
same,absolute bioavailability,[5],5.18%
GPFPLPD [GPFPLPD],IC50,DPP-IV,99.1 µM
same,oral bioavailability,[3],11.28%
same,AR30 (absorption ratio at 30 min),[3],10.21 ± 1.48%
same,AR90 (absorption ratio at 90 min),[3],6.52 ± 0.66%
same,AUC,[3],40200 ng·h/mL
same,Cmax,[3],26100 ± 4120 ng/mL
same,Fractional absorption,[3],7.2%
same,Tmax,[3],1 h
same,half-life,[3],1.65 h
same,structural integrity in plasma (MALDI-TOF/TOF),[4],remained structurally intact
